Assays:
[1] = system: MF CD34+, CD41+ and CD33+ cells; assay: Proliferation and lineage differentiation of MF mononuclear cells cultured with IL-8, flow cytometry; assay type: cell-based, human; details: ladarixin added to IL-8 culture, FIG. 4A
Protocol: To evaluate the effects of IL-8 on MF CD34^+ cells proliferation and lineage differentiation, MF mononuclear cells (MNC cells) were cultured with StemSpan™ Serum-Free Expansion Medium (SFEM) containing 20 ng/ml of stem cell factor (SCF), thrombopoietin (TPO), FL-3L and IL-3 with or without 50 ng/ml of IL-8. The cells were harvested after 3 days of incubation. The proportion of hematopoietic cells belonging to specific lineages were determined using flow cytometry.

[2] = system: co-cultures of MF MNC and stromal cells; assay: ELISA of IL-8 and VEGF in conditioned medium of co-cultures of MF MNC and splenic stromal cells; assay type: cell-based, human
Source text: FIGS. 6A, 6B, 6C, 6D, and 6E illustrate that a CXCR1/CXCR2 inhibitor reverses effects of IL-8 on micro-environmental cells. […] N splenic AC=normal splenic adherent cells. nBM MNC=non-adherent bone marrow mononuclear cells. MNC=mononuclear cells. […] FIGS. 6D and 6E illustrate that addition of CXCR1/CXCR2 inhibitor Ladx decreased the levels of IL-8 (FIG. 6D) and VEGF (FIG. 6E) in conditioned medium harvested from co-cultures of MF MNC and stromal cells.

## C[C@@H](C(=O)NS(C)(=O)=O)c1ccc(OS(=O)(=O)C(F)(F)F)cc1 [Ladarixin, R(-)-2-[(4′-trifluoromethanesulfonyloxy)phenyl]-N-methanesulfonyl propionamide]
[1]
  effect on IL-8 induced change of percentage of MF CD34+, CD41+ and CD33+ cells: reversed the effects of IL-8
[2]; FIG. 6D
  IL-8 levels in co-cultures (conditioned medium): decreased
[2]; FIG. 6E
  VEGF levels in co-cultures (conditioned medium): decreased

From patent US20240115527A1, “CXCR1/CXCR2 INHIBITORS FOR USE IN TREATING MYELOFIBROSIS” (Icahn School of Medicine at Mount Sinai, priority 2020, published 2024)
